Laboratory results taken from patent US12708630B2, “Combined therapy of 4′-thio-5-aza-2′-deoxycytidine and Venetoclax” (PINOTBIO, INC., priority 2021, dated 2026).

Legend:
Assay in all cases: drug activity profiling cytotoxicity
Type in all cases: cell-based
769-P = details: Homo sapiens; 769-P cell line, Kidney; read-out: Aza-T-dCyd IC50
Procedure: (§1) To obtain a biomarker for Aza-T-dCyd, drug activity profiling analysis was performed to evaluate the cytotoxicity of 200 cell lines.
(§2) The drug responsiveness analysis of Aza-T-dCyd through drug activity profiling and genomic analysis of 200 cell lines confirmed the potent efficacy of Aza-T-dCyd in various solid tumors (Table 2).

786-O = details: Homo sapiens, 786-0; 786-O cell line, Kidney; read-out: Aza-T-dCyd IC50
Procedure: as §1, §2

A-673 = details: Homo sapiens, A673; A-673 cell line, Sarcoma; read-out: Aza-T-dCyd IC50
Procedure: as §1, §2

A172 = details: Homo sapiens, A 172; A172 cell line, CNS (Glioma); read-out: Aza-T-dCyd IC50
Procedure: as §1, §2

A549 = details: Homo sapiens; A549 cell line, Lung (NSCLC); read-out: Aza-T-dCyd IC50
Procedure: as §1, §2

ACHN = details: Homo sapiens; ACHN cell line, Kidney; read-out: Aza-T-dCyd IC50
Procedure: as §1, §2

AsPC-1 = details: Homo sapiens, ASPC1; AsPC-1 cell line, Pancreas; read-out: Aza-T-dCyd IC50
Procedure: as §1, §2

BM-1604 = BM-1604 cell line, Prostate; read-out: Aza-T-dCyd IC50
Procedure: as §1, §2

BT20 = details: Homo sapiens, BT-20; BT20 cell line, Breast; read-out: Aza-T-dCyd IC50
Procedure: as §1, §2

BV-173 = details: Homo sapiens; BV-173 cell line, CML; read-out: Aza-T-dCyd IC50
Procedure: as §1, §2

C-4 II = details: Homo sapiens; C-4 II cell line, Female GU (Cervix); read-out: Aza-T-dCyd IC50
Procedure: as §1, §2

Caki-2 = details: Homo sapiens; Caki-2 cell line, Kidney; read-out: Aza-T-dCyd IC50
Procedure: as §1, §2

DK-MG = DK-MG cell line, CNS (Glioma); read-out: Aza-T-dCyd IC50
Procedure: as §1, §2

EM-2 = details: Homo sapiens; EM-2 cell line, CML; read-out: Aza-T-dCyd IC50
Procedure: as §1, §2

HT-1080 = details: Homo sapiens; HT-1080 cell line, Sarcoma; read-out: Aza-T-dCyd IC50
Procedure: as §1, §2

HT-29 = details: Homo sapiens; HT-29 cell line, Colon; read-out: Aza-T-dCyd IC50
Procedure: as §1, §2

Hs 766T = details: Hs766T; Hs 766T cell line, Pancreas; read-out: Aza-T-dCyd IC50
Procedure: as §1, §2

Hs 936.T(C1) = Hs 936.T(C1) cell line, Skin (Melanoma); read-out: Aza-T-dCyd IC50
Procedure: as §1, §2

LS1034 = details: Homo sapiens, LS-1034; LS1034 cell line, Colon; read-out: Aza-T-dCyd IC50
Procedure: as §1, §2

MG-63 = details: Homo sapiens; MG-63 cell line, Bone (Osteosarcoma); read-out: Aza-T-dCyd IC50
Procedure: as §1, §2

MOLT-16 = details: Homo sapiens; MOLT-16 cell line, ALL; read-out: Aza-T-dCyd IC50
Procedure: as §1, §2

NTERA-2 cl.D1 = details: Homo sapiens; NTERA-2 cl.D1 cell line, Testis; read-out: Aza-T-dCyd IC50
Procedure: as §1, §2

PSN-1 = details: Homo sapiens, PSN1; PSN-1 cell line, Pancreas; read-out: Aza-T-dCyd IC50
Procedure: as §1, §2

RL95-2 = details: Homo sapiens; RL95-2 cell line, Female GU (Uterus); read-out: Aza-T-dCyd IC50
Procedure: as §1, §2

RS4; 11 = details: Homo sapiens, 11 cell line, ALL, read-out: Aza-T-dCyd IC50
Procedure: as §1, §2

Raji = details: Homo sapiens; Raji cell line, Burkitt's lymphoma; read-out: Aza-T-dCyd IC50
Procedure: as §1, §2

SCC-4 = details: Homo sapiens; SCC-4 cell line, Head and Neck; read-out: Aza-T-dCyd IC50
Procedure: as §1, §2

SJRH30 = details: Homo sapiens; SJRH30 cell line, Sarcoma; read-out: Aza-T-dCyd IC50
Procedure: as §1, §2

SK-NEP-1 = details: Homo sapiens; SK-NEP-1 cell line, Kidney; read-out: Aza-T-dCyd IC50
Procedure: as §1, §2

SW480 = details: Homo sapiens; SW480 cell line, Colon; read-out: Aza-T-dCyd IC50
Procedure: as §1, §2

SW982 = details: Homo sapiens; SW982 cell line, Sarcoma; read-out: Aza-T-dCyd IC50
Procedure: as §1, §2

Nc1ncn([C@H]2CC(O)[C@@H](CO)S2)c(=O)n1 (stereo partly shown) [Aza-T-dCyd, 4′-thio-5-aza-2′-deoxycytidine]
IC50 (769-P): 65.7 nM | IC50 (786-O): 249 nM | IC50 (A-673): 698 nM | IC50 (A172): > 10 µM | IC50 (A549): 190 nM | IC50 (ACHN): 231 nM | IC50 (AsPC-1): 2120 nM | IC50 (BM-1604): 4.41 µM | IC50 (BT20): > 10 µM | IC50 (BV-173): 5.32 nM | IC50 (C-4 II): 773 nM | IC50 (Caki-2): 363 nM | IC50 (DK-MG): > 10 µM | IC50 (EM-2): 255 nM | IC50 (HT-1080): 120 nM | IC50 (HT-29): 323 nM | IC50 (Hs 766T): 9.4 µM | IC50 (Hs 936.T(C1)): 398 nM | IC50 (LS1034): 1410 nM | IC50 (MG-63): 990 nM | IC50 (MOLT-16): 18.2 nM | IC50 (NTERA-2 cl.D1): 42.7 nM | IC50 (PSN-1): 191 nM | IC50 (RL95-2): 705 nM | IC50 (RS4; 11): 20.3 nM | IC50 (Raji): 75.2 nM | IC50 (SCC-4): 2860 nM | IC50 (SJRH30): 291 nM | IC50 (SK-NEP-1): > 10 µM | IC50 (SW480): 1580 nM | IC50 (SW982): 171 nM
